Assay results reported in PubChem BioAssay AID248 (DTP/NCI, 2004).
“And” between values parts separate entries of the source, which are not always exact repeats. Equal entries are not always repeated. Toxic doses and inconclusive results are not listed. No stated cut-off is given here; in the data, active means T/C of 150% or more; inactive means T/C below 125%. Numbered stars: 1 amine (or outer) side, 2 acyl side, 3 side chain; on linkers, the order of the positions; unused ones are H or OH. Bridge positions count the residues as written; N and C are the ends. Square brackets hold non-standard residues; d marks the D form. Peptide text beside a SMILES is read from it. I, II: the chains in the order shown. Actinocin(9to1) = Cc1c2oc3c(C)ccc(C(=O)[*:1])c3nc-2c(C(=O)[*:2])c(N)c1=O; NMeV = CN[CH](C(=O)O)C(C)C; Pip = O=C(O)[CH]1CCCCN1; Sar = CNCC(=O)O

System: L1210 leukemia ip in BDF1 mice, survival T/C
Assay: NCI In Vivo Anticancer Drug Screen. Data for tumor model L1210 Leukemia (intraperitoneal) in B6D2F1 (BDF1) mice
Details: endpoint: mean survival time, higher = longer survival
Outline: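 Each compound was tested against a transplantable tumor grown in mice. The endpoint was survival, with treated animals benchmarked against vehicle controls as a simple ratio.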

[1] = dose: 100.0 mg/kg/injection, schedule: Q01DX009 (ip), vehicle: saline
[2] = dose: 100.0 mg/kg/injection, schedule: Q04DX003 (ip), vehicle: saline
[3] = dose: 200.0 mg/kg/injection, schedule: Q01DX009 (ip), vehicle: saline
[4] = dose: 200.0 mg/kg/injection, schedule: Q04DX003 (ip), vehicle: saline
[5] = dose: 400.0 mg/kg/injection, schedule: Q01DX009 (ip), vehicle: saline
[6] = dose: 400.0 mg/kg/injection, schedule: Q04DX003 (ip), vehicle: saline
[7] = dose: 100.0 mg/kg/injection, schedule: Q01DX001 (ip), vehicle: saline
[8] = dose: 200.0 mg/kg/injection, schedule: Q01DX001 (ip), vehicle: saline
[9] = dose: 400.0 mg/kg/injection, schedule: Q01DX001 (ip), vehicle: saline
[10] = dose: 25.0 mg/kg/injection, schedule: Q01DX009 (ip), vehicle: water
[11] = dose: 50.0 mg/kg/injection, schedule: Q01DX009 (ip), vehicle: water
[12] = dose: 100.0 mg/kg/injection, schedule: Q01DX009 (ip), vehicle: water
[13] = dose: 200.0 mg/kg/injection, schedule: Q01DX009 (ip), vehicle: water
[14] = dose: 100.0 mg/kg/injection, schedule: Q04DX002 (ip), vehicle: Klucel (hydroxypropylcellulose) (HPC)
[15] = dose: 200.0 mg/kg/injection, schedule: Q04DX002 (ip), vehicle: Klucel (hydroxypropylcellulose) (HPC)
[16] = dose: 400.0 mg/kg/injection, schedule: Q04DX002 (ip), vehicle: Klucel (hydroxypropylcellulose) (HPC)

Measured: T/C

Cc1c2oc3c(C)ccc(C(=O)NC4C(=O)NC(C(C)C)C(=O)N5CCCCC5C(=O)N(C)CC(=O)N(C)C(C(C)C)C(=O)OC4C)c3nc-2c(C(=O)NC2C(=O)NC(C(C)C)C(=O)N3CCCCC3C(=O)N(C)CC(=O)N(C)C(C(C)C)C(=O)OC2C)c(N)c1=O (configuration not stated) (I: TV[Pip][Sar][NMeV] / II: TV[Pip][Sar][NMeV]; ester I:1-I:C, II:1-II:C; linker I:N-II:N via Actinocin(9to1); configuration not given here)
inactive: dose: 0.5 mg/kg/injection, schedule: Q01DX001 (ip), vehicle: saline 105 % of control | dose: 0.5 mg/kg/injection, schedule: Q01DX009 (ip), vehicle: water 123 % of control | dose: 1.0 mg/kg/injection, schedule: Q01DX001 (ip), vehicle: saline 102 % of control | dose: 1.0 mg/kg/injection, schedule: Q01DX009 (ip), vehicle: water 104 % of control | dose: 1.8 mg/kg/injection, schedule: Q01DX001 (ip), vehicle: saline 116 % of control | dose: 2.0 mg/kg/injection, schedule: Q01DX001 (ip), vehicle: saline 112 % of control | dose: 2.6 mg/kg/injection, schedule: Q01DX001 (ip), vehicle: saline 109 % of control | dose: 6.0 mg/kg/injection, schedule: Q01DX001 (ip), vehicle: saline 103 % of control

COc1cc([N+](=O)[O-])c(C)cc1NCc1ccc(OC)c(OC)c1
inactive: dose: 50.0 mg/kg/injection, schedule: Q01DX009 (ip), vehicle: saline 96 % of control | [1] 94 % of control | [2] 97 % of control | [3] 91 % of control | [4] 98 % of control | [5] 94 % of control | [6] 89 % of control

COC1CCC(OC)(C(=O)NN)O1 (configuration not stated)
inactive: [7] 95 % of control | [8] 95 % of control | [9] 102 % of control

C=C1CC(CCCCCC2CC(=C)C(=O)O2)OC1=O (configuration not stated)
inactive: dose: 12.5 mg/kg/injection, schedule: Q04DX002 (ip), vehicle: saline 94 % of control | dose: 25.0 mg/kg/injection, schedule: Q04DX002 (ip), vehicle: saline 94 % of control | dose: 50.0 mg/kg/injection, schedule: Q04DX002 (ip), vehicle: saline 102 % of control

COc1ccc(C(=S)N2CCN(c3ccc(Cl)cc3)CC2)cc1
inactive: [7] 95 % of control | [8] 95 % of control | [9] 95 % of control

COc1ccc2ccccc2n1
inactive: dose: 100.0 mg/kg/injection, schedule: Q01DX001 (ip), vehicle: Klucel (hydroxypropylcellulose) (HPC) 94 % of control | dose: 100.0 mg/kg/injection, schedule: Q01DX009 (ip), vehicle: saline with Tween-80 103 % of control | dose: 100.0 mg/kg/injection, schedule: Q04DX003 (ip), vehicle: saline with Tween-80 103 % of control | dose: 200.0 mg/kg/injection, schedule: Q01DX001 (ip), vehicle: Klucel (hydroxypropylcellulose) (HPC) 102 % of control | dose: 200.0 mg/kg/injection, schedule: Q01DX009 (ip), vehicle: saline with Tween-80 90 % of control | dose: 200.0 mg/kg/injection, schedule: Q04DX003 (ip), vehicle: saline with Tween-80 98 % of control | dose: 400.0 mg/kg/injection, schedule: Q01DX001 (ip), vehicle: Klucel (hydroxypropylcellulose) (HPC) 105 % of control

CCN(CC)CCN=Cc1ccccc1OC
inactive: [7] 98 % of control | [8] 101 % of control

CCOC(CN(Cc1ccc(OCc2ccccc2)c(OC)c1)S(=O)(=O)c1ccc(C)cc1)OCC
inactive: [10] 102 % of control | [11] 91 % of control | [12] 105 % of control | [13] 102 % of control | dose: 400.0 mg/kg/injection, schedule: Q01DX009 (ip), vehicle: water 100 % of control

CCN(CC)c1ccnc(SCc2ccccc2)n1
inactive: dose: 100.0 mg/kg/injection, schedule: Q01DX Z (ip), vehicle: methylcellulose (MC) 89 % of control | dose: 200.0 mg/kg/injection, schedule: Q01DX Z (ip), vehicle: methylcellulose (MC) 89 % of control

Cc1cc(C)c[n+](Cc2ccccc2Cl)c1
inactive: dose: 12.5 mg/kg/injection, schedule: Q01DX001 (ip), vehicle: saline 102 % of control | dose: 25.0 mg/kg/injection, schedule: Q01DX001 (ip), vehicle: saline 96 % of control

c1cnc2c3c(ccc2c1)CN(C1CCCCC1)CO3
inactive: dose: 100.0 mg/kg/injection, schedule: Q04DX003 (ip), vehicle: saline sonified 94 % of control | dose: 200.0 mg/kg/injection, schedule: Q04DX003 (ip), vehicle: saline sonified 91 % of control

Clc1ccc(-c2cc(=[N+]3CCOCC3)ss2)cc1
inactive: [10] 101 % of control | [11] 93 % of control | [12] 96 % of control | [13] 88 % of control

Cc1cc(O)c(C)c(C(=O)O)c1
inactive: dose: 100.0 mg/kg/injection, schedule: Q01DX001 (ip), vehicle: carboxymethylcellulose (CMC) 98 % of control | dose: 200.0 mg/kg/injection, schedule: Q01DX001 (ip), vehicle: carboxymethylcellulose (CMC) 106 % of control | dose: 400.0 mg/kg/injection, schedule: Q01DX001 (ip), vehicle: carboxymethylcellulose (CMC) 98 % of control

CCCCCCCCCCCCCCCCCCNC(=O)N1CCC(C)CC1
inactive: [14] 97 % of control | [15] 100 % of control | [16] 97 % of control

COc1ccc2c3c(ccc2c1)C(=O)/C(=C\O)CC3
inactive: dose: 25.0 mg/kg/injection, schedule: Q01DX009 (ip), vehicle: Klucel (hydroxypropylcellulose) (HPC) 92 % of control | dose: 25.0 mg/kg/injection, schedule: Q04DX003 (ip), vehicle: Klucel (hydroxypropylcellulose) (HPC) 100 % of control | dose: 50.0 mg/kg/injection, schedule: Q01DX009 (ip), vehicle: Klucel (hydroxypropylcellulose) (HPC) 108 % of control | dose: 50.0 mg/kg/injection, schedule: Q04DX003 (ip), vehicle: Klucel (hydroxypropylcellulose) (HPC) 101 % of control | dose: 100.0 mg/kg/injection, schedule: Q01DX009 (ip), vehicle: Klucel (hydroxypropylcellulose) (HPC) 88 % of control | dose: 100.0 mg/kg/injection, schedule: Q04DX003 (ip), vehicle: Klucel (hydroxypropylcellulose) (HPC) 100 % of control and 103 % of control | dose: 200.0 mg/kg/injection, schedule: Q04DX003 (ip), vehicle: Klucel (hydroxypropylcellulose) (HPC) 103 % of control

COC(=O)/C=C\C[P+](c1ccccc1)(c1ccccc1)c1ccccc1
inactive: dose: 12.5 mg/kg/injection, schedule: Q04DX003 (ip), vehicle: saline 103 % of control | dose: 25.0 mg/kg/injection, schedule: Q04DX003 (ip), vehicle: saline 97 % of control | dose: 50.0 mg/kg/injection, schedule: Q04DX003 (ip), vehicle: saline 100 % of control | [7] 101 % of control

CCOC1C(=O)c2ccccc2CCN1S(=O)(=O)c1ccc(C)cc1 (configuration not stated)
inactive: [7] 96 % of control | [1] 101 % of control | [8] 100 % of control | [3] 95 % of control | [9] 103 % of control | [5] 94 % of control

CC(=O)Oc1ccc2c(c1)C(=O)CCC=C2
inactive: dose: 50.0 mg/kg/injection, schedule: Q01DX009 (ip), vehicle: other 92 % of control | dose: 200.0 mg/kg/injection, schedule: Q01DX009 (ip), vehicle: other 92 % of control

NC(=O)CNCCS(=O)(=O)O
inactive: [1] 101 % of control | [2] 97 % of control | [3] 107 % of control | [4] 97 % of control | [5] 101 % of control | [6] 100 % of control

Cc1cccc(C)c1OC(=O)Nc1ccccc1
inactive: [14] 101 % of control | [15] 97 % of control | [16] 101 % of control
